The values that follow are results of earlier work, collected in patent US20230355730A1, “METHODS FOR TREATING AUTOIMMUNE DISEASE USING BIOCOMPATIBLE BIOABSORBABLE NANOSPHERES” (UTI Limited Partnership, priority 2010, published 2023).

The data set has as its system IGRP206-214-reactive CD8^+ T-cells. The settings on record: cited from earlier work; for T1D protection: chronic treatment, moderate doses (NRP-A7), high doses (NRP-I4, NRP-V7, IGRP206-214).

For the sequence KYNIANVFL (SEQ ID NO:7) [NRP-I4], the T1D protection entry was “afforded T1D protection”. For KYNKANAFL (SEQ ID NO:6) [NRP-A7], the T1D protection entry is listed as “afforded T1D protection”. Also, for the setting “pre-diabetic NOD mice, soluble peptide”, the “avidity maturation of the IGRP206-214-reactive CD8^+ subset” value is “blunted avidity maturation”. On to KYNKANVFL (SEQ ID NO:8) [NRP-V7], for which the T1D protection result was “only afforded marginal protection”.

For “VYLKTNVFL (SEQ ID NO:4) [IGRP206-214, natural ligand]”, the T1D protection result is reported as “only afforded marginal protection”.
